Earlier results on one compound are cited in patent US11555010B2, “Diamide antimicrobial agents” (BROWN UNIVERSITY, priority 2019, dated 2023).

The test system of this data set is LT. To be noted: cited from earlier work.

SMILES strings stand for the structures.

As for `CC1=N[C@@H]2[C@@H](O)[C@H](O)[C@@H](CO)O[C@@H]2S1` [NAG-thiazoline], the “binding to LT” value is “weak binder”.
